Test results as given in US9096607B2, “Tumor necrosis factor inhibitors” (THE TRUSTEES OF THE UNIVERSITY OF PENNSYLVANIA, priority 2005, dated 2015).

System: L929 cells
Assay: Inhibition of TNF-α mediated cytolysis of L929 cells (Alamar Blue)
Assay type: cell-based, murine
Details: TNF-α 100 pg/mL, actinomycin D 1 μM; for % Inhibition at: 25 μM: 25 μM compound; for % Inhibition at: 50 μM: 50 μM compound; for % Inhibition at: 100μM: 100 μM compound
Source text: L929 cultured murine fibroblasts cells were obtained from American Type Culture Collection (Manassas, Va.). Tissue culture reagents were from Invitrogen or Sigma-Aldrich. TNF-α and Actinomycin D were from Sigma-Aldrich. Alamar Blue reagents (Cell Titer Blue™) were from Promega. The test compounds I-1 through I-16, II-1 through II-8, and III-1 through III-3 were obtained commercially or can be prepared as described above. The test compounds were individually dissolved in dimethylsulfoxide (DMSO). The test compounds were maintained at 4° C. when not in use. Other reagents were high-purity (ACS-grade, HPLC-grade, MilliQ water, or similar).
Stock L929 cells were grown on tissue culture plastic in complete DMEM (Dulbecco's Modified Eagles Medium) supplemented with 10% FBS (Fetal Bovine Serum), NEAA (non-essential amino acids), and glutamine. L929 cells were plated using the same medium on 96-well tissue culture plates at high density (i.e., ˜4×10^4 cells/well, or similar) before use.
Approximately 20 h after plating, the L929 cells on 96-well plates were re-fed with fresh medium containing one of the test compounds in a concentration selected from 100 μM, 50 μM, 25 μM as a “pre-treatment.” Approximately 30-60 min later, samples were treated with an additional amount of test compound (in the same amount and at the same concentration as the pre-treatment) prepared in medium containing TNF-α (200 pg/mL), and actinomycin D (2 μM). The final concentration of TNF-α in assays was 100 pg/mL. The final concentration of actinomycin D in assays was 1 μM. The plates were incubated for an additional 22-23 h, the Alamar Blue assay reagents were added and metabolic cell viability was determined from reduction of a fluorogenic Alamar Blue derivative.
The temperature was maintained at 37° C. with 5% CO2 and humidified. The metabolic viability was measured 1-2 h after addition of assay reagents/Alamar Blue derivative using TECAN SaFire fluorescence plate reader (Tecan Group Ltd., Maennedorf, Switzerland).
Inhibition of TNF-α induced cytolysis by a test compound (X) at a given concentration (y) was calculated as follows: […]

SMILES | % Inhibition at: 25 μM [%] | % Inhibition at: 50 μM [%] | % Inhibition at: 100μM [%]
CN(C)c1ccc(C(O)(c2ccc(N(C)C)cc2)c2ccc(N(C)C)cc2)cc1 [Compound I-1, 1,1,1-Tris-(4-dimethylaminophenyl)methanol] | 44.0 | 63.3 | 40.9
CC(c1ccc(OCC(=O)[O-])cc1)(c1ccc(OCC(=O)[O-])cc1)c1ccc(OCC(=O)[O-])cc1.[Na+].[Na+].[Na+] [Compound I-3, 1,1,1-Tris-(4-carboxymethoxyphenyl)ethane, trisodium salt] | 23.0 | 17.7 | 12.4
COC(=O)COc1ccc(C(C)(c2ccc(OCC(=O)OC)cc2)c2ccc(OCC(=O)OC)cc2)cc1 [Compound I-4, 1,1,1-Tris-(4-methoxycarbonylmethoxyphenyl)ethane] | 18.4 | 27.9 | −11.6
COc1ccc(C(C(=O)[O-])(c2ccc(OC)cc2)c2ccc(OC)cc2)cc1.[Na+] [Compound I-5, Sodium 1,1,1-tris-(4-methoxyphenyl)acetate] | 1.7 | 5.0 | 12.1
COc1ccc(C(O)(c2ccc(OC)cc2)c2ccc(OC)cc2)cc1 [Compound I-6, 1,1,1-Tris-(4-methoxyphenyl)methanol] | 12.0 | 25.9 | 32.5
COc1ccc([C+](c2ccc(OC)cc2)c2ccc(OC)cc2)cc1 [Compound I-7, 4,4′,4″-Trimethoxytrityl tetrafluoroborate] | 15.1 | 30.2 | 25.9
COc1ccc(C(C(=O)O)(c2ccc(OC)cc2)c2ccc(OC)cc2)cc1 [Compound I-8, 1,1,1-Tris-(4-methoxyphenyl)acetic acid] | 2.7 | 6.9 | 18.4
CC(=O)Oc1ccc(C(C)(c2ccccc2)c2ccc(OC(C)=O)cc2)cc1 [Compound I-10, 1,1-Bis-(4-acetoxyphenyl)-1-phenyl-ethane] | 20.7 | 46.6 | 71.9
COC(=O)COc1ccc(C(C)(c2ccc(O)cc2)c2ccc(O)cc2)cc1 [Compound I-11, 1,1-Bis-(4-hydroxyphenyl)-1-(4-methoxycarbonylmethoxyphenyl)ethane] | 13.9 | 36.7 | 14.8
CC(c1ccc(O)cc1)(c1ccc(OCC(=O)O)cc1)c1ccc(OCC(=O)O)cc1.[Na+].[Na+].[Na+] [Compound I-12, 1,1-Bis-(4-carboxymethoxy-phenyl)-1-(4-hydroxyphenyl)ethane, trisodium salt] | 14.5 | 16.9 | 14.2
CC(c1ccc(OC(=O)CCl)cc1)(c1ccc(OC(=O)CCl)cc1)c1ccc(OC(=O)CCl)cc1 [Compound I-13, 1,1,1-Tris-(4-chloroacetoxyphenyl)ethane] | 35.4 | 72.2 | 38.9
COC(=O)COc1ccc(C(C)(c2ccc(OCC(=O)OC)cc2)c2ccc(OC(C)=O)cc2)cc1 [Compound I-14, 1-(4-Acetoxy-phenyl)-1,1-bis-(4-methoxycarbonylmethoxyphenyl)ethane] | 13.4 | 30.2 | 45.3
CC(c1ccccc1)(c1ccc(OC(=O)CCl)cc1)c1ccc(OC(=O)CCl)cc1 [Compound I-15, 1,1-Bis-(4-chloroacetoxyphenyl)-1-phenylethane] | 29.7 | 73.8 | −19.8
CC(=O)Oc1ccc(C2(c3ccc(OC(C)=O)cc3)C(=O)Nc3ccccc32)cc1 [Compound I-16, 3,3-Bis[4-(acetyloxy)phenyl]-1,3-dihydro-2H-indol-2-one] | 4.3 | 11.5 | 17.1
CN(C)c1ccc(C(O)(c2ccccc2)c2ccc(N(C)C)cc2)cc1 [Compound I-17, 1,1-Bis(4-dimethylaminophenyl)-1-phenyl-methanol] | −16.0 | −17.0 | −17.9
Cc1cc(C(C)(c2ccc(O)cc2)c2cc(C)c(N)c(C)c2)cc(C)c1N [Compound I-18, 1,1-Bis(4-amino-3,5-dimethylphenyl)-1-(4-hydroxyphenyl)-ethane] | 22.6 | 36.6 | 53.8
O=C1OC2(c3ccc(Cl)cc3Oc3cc(Cl)ccc32)c2ccccc21 [II-1, 3′,6′-Dichlorofluorescein] | 20.7 | 8.8 | 7.6
CC(=O)Oc1ccc2c(c1)Oc1cc(OC(C)=O)ccc1C21OC(=O)c2ccccc21 [II-2, 3′,6′-Fluorescein diacetate] | 25.4 | 23.5 | 26.0
O=C(O)c1ccccc1C1c2ccc(Cl)cc2Oc2cc(Cl)ccc21 [II-3, 2-(3,6-Dichloro-9H-xanthen-9-yl)-benzoic acid] | 36.2 | 45.6 | 52.4
O=C(O)c1ccccc1C1c2ccc(O)cc2Oc2cc(O)ccc21 [II-4, 2-(3,6-Dihydroxy-9H-xanthen-9-yl)-benzoic acid] | 33.3 | 23.6 | 23.2
O=C(O)c1ccccc1C1c2ccc(O)cc2Oc2cc(O)ccc21 [II-5, 2-Hydroxy-1,1-bis-hydroxymethyl-ethyl-ammonium; 2-(3,6-dihydroxy-9H-xanthen-9-yl)-benzoate] | 25.1 | 16.3 | 21.5
NC(=O)c1ccccc1C1c2ccc(Cl)cc2Oc2cc(Cl)ccc21 [II-6, 2-(3,6-Dichloro-9H-xanthen-9-yl)-benzamide] | 43.3 | −6.1 | −21.7
O=C([O-])c1ccccc1C(c1ccc(O)cc1)c1ccc(O)cc1.[K+] [II-7, Potassium 2-[bis-(4-hydroxyphenyl)-methyl]-benzoate] | 22.5 | 19.1 | 13.2
O=C([O-])c1ccccc1C1c2ccc(O)cc2Oc2cc(O)ccc21.[K+] [II-8, Potassium 2-(3,6-dihydroxy-9H-xanthen-9-yl)-benzoate] | 23.6 | 24.7 | 25.6
CC(=O)Oc1cc2c(cc1Cl)C1(OC(=O)c3ccccc31)c1cc(Cl)c(OC(C)=O)cc1O2 [II-9, 2′,7′-Dichlorofluorescein diacetate] | 6.3 | 10.5 | 22.0
O=[N+]([O-])c1cccc(NN=C(c2ccc(O)cc2)c2ccc(O)cc2)c1 [III-1, N-(4,4′-Dihydroxybenzhydrylidene)-N′-(3-nitrophenyl)hydrazine] | 33.2 | 42.5 | −20.3
CC(=O)Oc1ccc(C(=NNc2cccc([N+](=O)[O-])c2)c2ccc(OC(C)=O)cc2)cc1 [III-2, 4,4′-Diacetoxybenzophenone-3-nitrophenylhydrazone] | 26.9 | 42.0 | −19.8
